Results reported in ChEMBL document CHEMBL1806424, “The novel 3,4-dihydropyrimidin-2(1H)-one urea derivatives of N-aryl urea: synthesis, anti-inflammatory, antibacterial and antifungal activity evaluation” (2011).
Values after ≈ are worked out from the molar mass of the structure shown. Active and inactive are the calls of the source. No cut-off for these calls is given here.

Tests used:
[1] = system: Staphylococcus aureus; assay: Antibacterial activity against Staphylococcus aureus; assay type: functional
[2] = system: Candida albicans; assay: Antifungal activity against Candida albicans; assay type: functional
[3] = system: THP-1; assay: Antiinflammatory activity in human THP1 cells assessed as inhibition of LPS-induced TNFalpha production at 10 uM treated 30 mins before LPS challenge measured after 24 hrs by ELISA; assay type: functional
[4] = system: Salmonella typhimurium; assay: Antibacterial activity against Salmonella Typhimurium; assay type: functional, Salmonella enterica subsp. enterica serovar Typhimurium; conditions: Salmonella enterica
[5] = system: Aspergillus niger; assay: Antifungal activity against Aspergillus niger; assay type: functional
[6] = system: Bacillus subtilis; assay: Antibacterial activity against Bacillus subtilis; assay type: functional
[7] = system: Fusarium solani; assay: Antifungal activity against Fusarium solani; assay type: functional
[8] = system: Aspergillus flavus; assay: Antifungal activity against Aspergillus flavus; assay type: functional
[9] = system: THP-1; assay: Antiinflammatory activity in human THP1 cells assessed as inhibition of LPS-induced IL6 production at 10 uM treated 30 mins before LPS challenge measured after 24 hrs by ELISA; assay type: functional
[10] = system: Escherichia coli; assay: Antibacterial activity against Escherichia coli; assay type: functional
[11] = system: Aspergillus niger; assay: Antifungal activity against Aspergillus niger at 200 ug/ml; assay type: functional, organism-based
[12] = system: Escherichia coli; assay: Antibacterial activity against Escherichia coli at 200 ug/ml; assay type: functional, organism-based
[13] = system: Aspergillus flavus; assay: Antifungal activity against Aspergillus flavus at 200 ug/ml; assay type: functional, organism-based
[14] = system: Salmonella typhimurium; assay: Antibacterial activity against Salmonella Typhimurium at 200 ug/ml; assay type: functional, organism-based; conditions: Salmonella enterica subsp. enterica serovar Typhimurium
[15] = system: Fusarium solani; assay: Antifungal activity against Fusarium solani at 200 ug/ml; assay type: functional, organism-based
[16] = system: THP-1; assay: Antiinflammatory activity in human THP1 cells assessed as inhibition of LPS-induced TNFalpha production at 1 uM treated 30 mins before LPS challenge measured after 24 hrs by ELISA; assay type: functional
[17] = system: THP-1; assay: Antiinflammatory activity in human THP1 cells assessed as inhibition of LPS-induced IL6 production at 1 uM treated 30 mins before LPS challenge measured after 24 hrs by ELISA; assay type: functional
[18] = system: Aspergillus niger; assay: Ratio of miconazole MIC to compound MIC for Aspergillus niger; assay type: functional
[19] = system: Escherichia coli; assay: Ratio of ciprofloxacin MIC to compound MIC for Escherichia coli; assay type: functional
[20] = system: Aspergillus flavus; assay: Ratio of miconazole MIC to compound MIC for Aspergillus flavus; assay type: functional
[21] = system: Staphylococcus aureus; assay: Ratio of ciprofloxacin MIC to compound MIC for Staphylococcus aureus; assay type: functional
[22] = system: Bacillus subtilis; assay: Ratio of ciprofloxacin MIC to compound MIC for Bacillus subtilis; assay type: functional
[23] = system: Candida albicans; assay: Ratio of miconazole MIC to compound MIC for Candida albicans; assay type: functional
[24] = system: Fusarium solani; assay: Ratio of miconazole MIC to compound MIC for Fusarium solani; assay type: functional
[25] = system: Salmonella typhimurium; assay: Ratio of ciprofloxacin MIC to compound MIC for Salmonella Typhimurium; assay type: functional, Salmonella enterica subsp. enterica serovar Typhimurium
[26] = system: Bacillus subtilis; assay: Antibacterial activity against Bacillus subtilis at 200 ug/ml; assay type: functional, organism-based

SMILES | MIC [1] [µg/mL] | MIC [2] [µg/mL] | inhibition at 10 µM [3] [%] | MIC [4] [µg/mL] | MIC [5] [µg/mL] | MIC [6] [µg/mL] | MIC [7] [µg/mL] | MIC [8] [µg/mL] | inhibition at 10 µM [9] [%] | MIC [10] [µg/mL] | also measured
CCOC(=O)C1=C(C)NC(=S)NC1c1ccc(NC(=O)Nc2ccc(C(F)(F)F)cc2)cc1 (configuration not stated) | 20 (≈ 41.8 µM) | 15 (≈ 31.3 µM) | 3 | 30 (≈ 62.7 µM) | 15 (≈ 31.3 µM) | 25 (≈ 52.2 µM) | 10 (≈ 20.9 µM) | 25 (≈ 52.2 µM) | 55 | 10 (≈ 20.9 µM) | 
CCOC(=O)C1=C(C)NC(=S)NC1c1ccc(NC(=O)Nc2ccc(C)c(C)c2)cc1 (configuration not stated) | 90 (≈ 205 µM) | 95 (≈ 217 µM) | 0 |  |  | 95 (≈ 217 µM) |  |  | 2 |  | Activity [11]: inactive; Activity [12]: inactive; Activity [13]: inactive; Activity [14]: inactive; Activity [15]: inactive
C[C@@H]1C[C@H]2[C@@H]3CCC4=CC(=O)C=C[C@]4(C)[C@@]3(F)[C@@H](O)C[C@]2(C)[C@@]1(O)C(=O)CO [DEXAMETHASONE] |  |  |  |  |  |  |  |  |  |  | inhibition at 1 µM [16]: 71%; inhibition at 1 µM [17]: 84%
CCOC(=O)C1=C(C)NC(=S)NC1c1ccc(NC(=O)Nc2c(C)cccc2F)cc1 (configuration not stated) | 60 (≈ 136 µM) | 50 (≈ 113 µM) | 0 | 30 (≈ 67.8 µM) | 35 (≈ 79.1 µM) | 65 (≈ 147 µM) | 40 (≈ 90.4 µM) | 40 (≈ 90.4 µM) | 6 | 30 (≈ 67.8 µM) | 
CCOC(=O)C1=C(C)NC(=S)NC1c1ccc([N+](=O)[O-])cc1 (configuration not stated) | 35 (≈ 109 µM) | 30 (≈ 93.4 µM) | 0 | 50 (≈ 156 µM) | 50 (≈ 156 µM) | 45 (≈ 140 µM) | 60 (≈ 187 µM) | 60 (≈ 187 µM) | 8 | 30 (≈ 93.4 µM) | 
CCOC(=O)C1=C(C)NC(=S)NC1c1ccc(NC(=O)Nc2ccccc2Cl)cc1 (configuration not stated) | 10 (≈ 22.5 µM) | 10 (≈ 22.5 µM) | 0 | 40 (≈ 89.9 µM) | 15 (≈ 33.7 µM) | 20 (≈ 44.9 µM) | 15 (≈ 33.7 µM) | 30 (≈ 67.4 µM) | 43 | 10 (≈ 22.5 µM) | Ratio [18]: 2.5; Ratio [19]: 1.5; Ratio [20]: 2.5; Ratio [21]: 1.5; Ratio [22]: 1.5; Ratio [23]: 2.5; Ratio [24]: 2.5; Ratio [25]: 1.5
CCOC(=O)C1=C(C)NC(=S)NC1c1ccc(NC(=O)Nc2ccc(F)c(Cl)c2)cc1 (configuration not stated) | 60 (≈ 130 µM) | 80 (≈ 173 µM) | 3 |  |  |  | 95 (≈ 205 µM) |  | 40 | 85 (≈ 184 µM) | Activity [11]: inactive; Activity [13]: inactive; Activity [14]: inactive; Activity [26]: inactive
CCOC(=O)C1=C(C)NC(=S)NC1c1ccc(NC(=O)Nc2cccc(C(F)(F)F)c2)cc1 (configuration not stated) | 40 (≈ 83.6 µM) | 25 (≈ 52.2 µM) | 0 | 40 (≈ 83.6 µM) | 20 (≈ 41.8 µM) | 55 (≈ 115 µM) | 15 (≈ 31.3 µM) | 15 (≈ 31.3 µM) | 11 | 20 (≈ 41.8 µM) | 
CCOC(=O)C1=C(C)NC(=S)NC1c1ccc(NC(=O)Nc2ccccc2Oc2ccccc2)cc1 (configuration not stated) | 40 (≈ 79.6 µM) | 40 (≈ 79.6 µM) | 0 | 40 (≈ 79.6 µM) | 60 (≈ 119 µM) | 55 (≈ 109 µM) | 30 (≈ 59.7 µM) | 30 (≈ 59.7 µM) | 36 | 35 (≈ 69.6 µM) | 
Clc1ccc(COC(Cn2ccnc2)c2ccc(Cl)cc2Cl)c(Cl)c1 (configuration not stated) [MICONAZOLE] |  | 25 (≈ 60.1 µM) |  |  | 20 (≈ 48.1 µM) |  | 15 (≈ 36 µM) | 20 (≈ 48.1 µM) |  |  | 
O=C(O)c1cn(C2CC2)c2cc(N3CCNCC3)c(F)cc2c1=O [CIPROFLOXACIN] |  |  |  | 25 (≈ 75.4 µM) |  | 25 (≈ 75.4 µM) |  |  |  | 15 (≈ 45.3 µM) | 
CCOC(=O)C1=C(C)NC(=S)NC1c1ccc(NC(=O)Nc2c(F)cccc2Cl)cc1 (configuration not stated) | 65 (≈ 140 µM) | 40 (≈ 86.4 µM) | 0 | 85 (≈ 184 µM) | 60 (≈ 130 µM) | 55 (≈ 119 µM) | 80 (≈ 173 µM) | 90 (≈ 194 µM) | 36 | 85 (≈ 184 µM) | 
CCOC(=O)C1=C(C)NC(=S)NC1c1ccc(NC(=O)Nc2ccc(F)c(C)c2)cc1 (configuration not stated) | 65 (≈ 147 µM) | 80 (≈ 181 µM) | 0 | 90 (≈ 203 µM) | 95 (≈ 215 µM) | 90 (≈ 203 µM) |  | 95 (≈ 215 µM) | 16 |  | Activity [12]: inactive; Activity [15]: inactive
